Assay results as given in patent US20220009894A1, “1,2,3,4-TETRAHYDROQUINOXALINE DERIVATIVE, PREPARATION METHOD THEREFOR AND APPLICATION THEREOF” (Abbisko Therapeutics Co., Ltd., priority 2019, published 2022).

What was measured:
RORγt-LBD = target: T1, RORγt-LBD (Homo sapiens, UniProt P51449); experiment: Time-resolved fluorescence resonance energy-transfer assay (TR-FRET), co-activator peptide recruitment; format: biochemical; design: TR-FRET Biochemical Amax: unit not given here; conditions: for EC50: His-RORγt-LBD 30 nM, SRC peptide 500 nM, agonistic activity, averages of one or more measurements, read-out: TR-FRET Biochemical EC50/; for TR-FRET Biochemical Amax: upper activation limit, His-RORγt-LBD, SRC peptide
T1 sequence (P51449 269-508 limits assumed): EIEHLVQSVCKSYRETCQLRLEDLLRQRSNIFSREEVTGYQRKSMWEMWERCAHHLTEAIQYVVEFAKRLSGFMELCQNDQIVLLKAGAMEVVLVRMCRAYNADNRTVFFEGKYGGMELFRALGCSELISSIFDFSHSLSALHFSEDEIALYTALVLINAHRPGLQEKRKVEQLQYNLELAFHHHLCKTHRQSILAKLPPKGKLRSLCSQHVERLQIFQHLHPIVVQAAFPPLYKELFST
Method in brief: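 This agonist-mode TR-FRET used 30 nM His-tagged RORγt-LBD, 500 nM biotinylated SRC peptide, 0.25 nM Eu-anti-His and 5 nM APC-streptavidin in pH 7.0 Tris/KCl buffer with DTT and Triton. A 7-concentration, 5-fold compound series was incubated at 4 °C overnight plus 1 h at room temperature, and the 665/615 nm signal was read.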

RORγt = target: T2, RORγt (Homo sapiens, UniProt P51449); experiment: RORγt cellular reporter gene detection assay; format: cell-based; conditions: 24 hrs; for EC50: HEK 293 cells co-transfected with pFN26A-RORγt-LBD and pG14.35, in presence of antagonist Ursolic acid, top concentration 50 μM; for Cellular Reporter Assay Amax: upper activation limit, HEK 293 cells, in presence of antagonist Ursolic acid;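 for Cellular Reporter Assay Amax: Ursolic Acid added as 5 µL of 20 µM medium per well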
T2 construct: The plasmid of pFN26A-RORγt-LBD and pG14.35 (Promega, Cat. No. E1370) were co-transfected into HEK 293 cells; expressed in transfected cells; host or cells: HEK 293 cells (Cat. No. GNHu18)
T2 sequence (P51449 269-508 limits assumed): T1 sequence (P51449 269-508 limits assumed)
Method in brief: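 Compounds, titrated 4-fold from a 50 μM top concentration, were added with Ursolic acid to HEK293 cells carrying a RORγt-LBD plasmid and a reporter plasmid. After 24 h at 37° C, dual firefly/Renilla luciferase readout; four-parameter curves gave EC50 and maximal activation (Amax).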

Compound	EC50 (RORγt-LBD)	TR-FRET Biochemical Amax (RORγt-LBD)	EC50 (RORγt)	Cellular Reporter Assay Amax (RORγt)
C/C(=C\c1ccc2c(c1)N(S(=O)(=O)c1cccc(C(F)(F)F)c1)C[C@@H]1CN(S(N)(=O)=O)CCN21)c1c(F)cccc1Cl [Example 66, (R,E)-8-(2-(2-chloro-6-fluorophenyl)prop-1-en-1-yl)-6-((3-(trifluoromethyl)phenyl)sulfonyl)-1,2,4,4a,5,6-hexahydro-3H-pyrazino[1,2-a]quinoxaline-3-sulfonamide]	0.0336 µM	0.99	0.523 µM	5.6
COC(=O)CN1CCN2c3ccc(/C=C(\C)c4c(F)cccc4Cl)cc3N(S(=O)(=O)c3cccc(C(F)(F)F)c3)C[C@@H]2C1 [Example 44, methyl (S,E)-2-(8-(2-(2-chloro-6-fluorophenyl)prop-1-en-1-yl)-6-((3-(trifluoromethyl)phenyl)sulfonyl)-1,2,4,4a,5,6-hexahydro-3H-pyrazino[1,2-a]quinoxalin-3-yl)acetate]	0.0235 µM	1.04	0.256 µM	4.2
C/C(=C\c1ccc2c(c1)N(S(=O)(=O)c1cccc(C(F)(F)F)c1)C[C@@H]1CN(C(N)=O)CCN21)c1c(F)cccc1Cl [Example 62, (S,E)-8-(2-(2-chloro-6-fluoro-phenyl)prop-1-en-1-yl)-6-((3-(trifluoromethyl)phenyl)sulfo-nyl)-1,2,4,4a,5,6-hexahydro-3H-pyrazino[1,2-a]quinoxa-line-3-carboxamide]	0.0252 µM	0.69	0.297 µM	3.8
CC(=O)N1CCN2c3ccc(C4=CC(C)(C)OC(C)(C)C4)cc3N(S(=O)(=O)c3cccc(C(F)(F)F)c3)C[C@@H]2C1 [Example 16, (S)-1-(8-(2,2,6,6-tetramethyl-yl-3,6-dihydro-2H-pyran-4-yl)-6-((3-(trifluoromethyl)phenyl)sulfonyl)-1,2,4,4a, 5,6-hexahydro-3H-pyrazino [1,2-a]quinoxalin-3-yl) ethan-1-one]	0.00952 µM	0.78	0.059 µM	2.0
COC(=O)C(C)N1CCN2c3ccc(C4=CC(C)(C)OC(C)(C)C4)cc3N(S(=O)(=O)c3cccc(C(F)(F)F)c3)C[C@@H]2C1 (stereo partly drawn) [Example 24, methyl 2-((S)-8-(2,2,6,6-tetramethyl-3,6-dihydro-2H-pyran-4-yl)-6-((3-(trifluoro-methyl)phenyl)sulfonyl)-1,2,4,4a,5,6-hexahydro-3H-pyrazino[1,2-a]qui-noxalin-3-yl)propanoate]	0.0315 µM	0.92	0.0485 µM	2.4
C/C(=C\c1ccc2c(c1)N(S(=O)(=O)c1cccc(C(F)(F)F)c1)C[C@@H]1CN(C(CO)CO)CCN21)c1c(F)cccc1Cl [Example 69, (S,E)-2-(8-(2-(2-chloro-6-fluorophenyl)prop-1-en-1-yl)-6-((3-(trifluoromethyl)phenyl)sulfonyl)-1,2,4,4a,5,6-hexahydro-3H-pyrazino[1,2-a]quinoxalin-3-yl)propane-1,3-diol]	0.0444 µM	1.05	0.6 µM	5.8
CS(=O)(=O)N1CCN2c3ccc(-c4cc(F)cc(OC(F)F)c4)cc3N(S(=O)(=O)c3cc(C(F)(F)F)cnc3OCCO)C[C@@H]2C1 [Example 89, (S)-2-((3-((8-(3-(difluoromethoxy)-5-fluorophenyl)-3-(methylsulfonyl)-1,2,3,4,4a,5-hexahydro-6H-pyrazino[1,2-a]quinoxalin-6-yl)sulfonyl)-5-(trifluoromethyl)pyridin-2-yl)oxy)ethan-1-ol]	0.00053 µM	0.40	1.09 µM	2.7
